Assay results published in US5304556A, “Benza-triazinone derivatives” (Mitsubishi Kasei Corporation, priority 1991, dated 1994).
Where two headings read alike, the source gives them in different places.

Assays:
[1] = Kokai Sho 60-132928, Table 2; cited from earlier work
[2] = system: contraction of the respiratory tract due to PAF; test: Activity to contraction of the respiratory tract of guinea pig due to PAF; format: in vivo, guinea pig (Hartley); details: Cavia porcellus, read-out: Activity to Contraction of the Respiratory Tract of Guinea Pig due to PAF ED50
Protocol: Hartley male guinea pigs weighing from 350 g to 500 g were anesthetized by intraperitoneal administration of 50 mg/kg of sodium pentobarbital. Contraction of the respiratory tract was measured by inserting a cannula into trachea and measuring under artificial ventilation according to Conzet et al, Arch. […] 71. Test compound was orally administered 1 hour prior to intravenous administration of 0.3 μg/kg of PAF.

[3] = system: mouse death due to shock induced by PAF; test: Activity to mouse death due to shock induced by PAF; format: in vivo; details: male ICR mouse; oral 1 hour prior to i.v. 100 μg/kg PAF; survival at 24 hours
Protocol: Test was effected according to Young et al. method, Prostaglandins, Vol. 30, p.545, 1985. Lethal test was effected by treating starved male ICR mouse weighing from 25 g to 30 g with PAF without anesthesia. Test Compound was orally administered 1 hour prior to tail intravenous administration of 100 μg/kg of PAF. Survival rate of the test animal was examined 24 hours after intravenous administration of PAF.

[4] = system: Rabbit platelet aggregation induced by PAF; test: Rabbit platelet aggregation inhibitory activity (PAF-induced); format: cell-based, rabbit (New Zealand white); details: Oryctolagus cuniculus, read-out: Rabbit Platelet Aggregation Inhibitory activity IC50
Protocol: To 0.9 volume of blood collected from jugular vein of a New Zealand white male rabbit weighing from 2.5 to 3.5 kg was added 0.1 volume of 3.8% aqueous sodium citrate, and the mixture was centrifuged at 110 xg for 15 minutes to give PRP ([…]). Assay of platelet aggregation induced by PAF was effected using 4 channels aggregometer (Manufacturer: Nicoh Bioscience Co.) according to Bohn et al, Turbidimetry [J. Physiology, Vol. 168, p.178, 1963]. […] The final concentration of PAF in the reaction mixture was adjusted to 10^-10 M.

Acute toxicity = details: in vivo; male and female SD (CD) rat; oral, 0.5% aqueous CMC-Na suspension; observed 14 days
[5] = system: thromboxane synthetase enzyme; details: Kokai Sho 63-316778, Table 1; cited from earlier work
[6] = Hartley male guinea pig, oral 1 hour prior to i.v. 0.3 μg/kg PAF
[7] = rabbit PRP, PAF final concentration 10^-10 M

Structure (SMILES)	ED50 [3]	IC50 [4, 7]	other results
CN1C(=O)c2ccc(Oc3ccc(C(F)(F)F)cc3Cl)cc2C1=O	–	–	herbicidal activity [1]: shows herbicidal activity
Cc1nnc2n1-c1sc(CCC(=O)N3CCOCC3)cc1C(c1ccccc1Cl)=NC2 [WEB2086, reference compound]	1 mg/kg	–	ED50 ([2]; po, 1 h): 0.15 mg/kg; IC50 [4]: 40 nM
O=c1c2cc(Oc3ccc(Cl)cc3)ccc2nnn1Cc1cccnc1 [compound 2, 6-(4-chlorophenoxy)-3-(3-pyridylmethyl)-1,2,3-benzotriazin-4 (3H)-one]	2.1 mg/kg	26 nM	ED50 [2, 6]: 0.15 mg/kg; LD50 at 336 h (Acute toxicity): > 2000 mg/kg
O=C1c2ccc(Oc3ccc(Cl)cc3)cc2C(=O)N1Cc1cccnc1 [compound 25, 5-(4-chlorophenoxy)-2-(3-pyridylmethyl)-1H-isoindole-1,3 (2H)-dione]	1.3 mg/kg	10 nM	ED50 [2, 6]: 0.14 mg/kg; LD50 at 336 h (Acute toxicity): > 2000 mg/kg
O=C(c1ccc(Cl)cc1)c1ccc2c(c1)C(=O)N(Cc1cccnc1)C2=O [compound 45, 5-(4-chlorobenzoyl)-2-(3-pyridylmethyl)-1H-isoindole-1,3 (2H)-dione]	0.6 mg/kg	19 nM	–
O=C1c2ccc(-c3cccc4ccccc34)cc2C(=O)N1Cc1cccnc1 [compound 50, 5-(1-naphthyl)-2-(3-pyridylmethyl)-1H-isoindole-1,3 (2H)-dione]	0.32 mg/kg	24 nM	–
O=C1c2ccc(N(c3ccc(Cl)cc3)c3ccc(Cl)cc3)cc2C(=O)N1Cc1cccnc1 [compound 60, 5-[N,N-bis (4-chlorophenyl)amino]-2-(3-pyridylmethyl)-1H-isoindole-1,3(2H)-dione]	0.019 mg/kg	2.6 nM	ED50 [2, 6]: 0.019 mg/kg; LD50 at 336 h (Acute toxicity): > 2000 mg/kg
N#Cc1ccc(N(c2ccc(C#N)cc2)c2ccc3c(c2)C(=O)N(Cc2cccnc2)C3=O)cc1 [compound 63, 5-[N,N-bis (4-cyanophenyl)amino]-2-(3-pyridylmethyl)-1H-isoindole-1,3 (2H)-dione]	0.007 mg/kg	1.7 nM	ED50 [2, 6]: 0.006 mg/kg; LD50 at 336 h (Acute toxicity): > 2000 mg/kg
O=C1c2ccc(C(c3ccc(Cl)cc3)c3ccc(Cl)cc3)cc2C(=O)N1Cc1cccnc1 [compound 68, 5-[bis (4-chlorophenyl)methyl]-2-(3-pyridylmethyl)-1H-isoindole-1,3 (2H)-dione]	–	1.8 nM	–
O=C1c2cccc(Oc3ccc(Cl)cc3)c2C(=O)N1Cc1cccnc1 [compound 72, 4-(4-chlorophenoxy)-2-(3-pyridylmethyl)-1H-isoindole-1,3 (2H)-dione]	0.4 mg/kg	32 nM	–
O=C1c2cc(Oc3ccc(Cl)cc3)ccc2CCN1Cc1cccnc1 [compound 84, 7-(4-chlorophenoxy)-3,4-dihydro-2-(3-pyridylmethyl)-1 (2H)-isoquinolinone]	–	10 nM	–
O=C1c2cc(Oc3ccc(F)cc3)ccc2CN1Cc1cccnc1 [compound 125, 2,3-dihydro-6-(4-fluorophenoxy)-2-(3-pyridylmethyl)-1H-isoindole-1-one]	–	36 nM	–
O=c1c2cc(Oc3ccc(Cl)cc3)ccc2ccn1Cc1cccnc1 [compound 128, 7-(4-chlorophenoxy)-2-(3-pyridylmethyl)-1 (2H)-isoquinolinone]	–	18 nM	–
O=c1c2cc(Oc3ccc(Cl)cc3)ccc2ccn1-c1cccnc1 [compound 130, 7-(4-chlorophenoxy)-2-(3-pyridyl)-1 (2H)-isoquinolinone]	0.018 mg/kg	–	–
O=c1c2cc(Oc3ccc(Cl)cc3)ccc2ncn1Cc1cccnc1 [compound 131, 6-(4-chlorophenoxy)-3-(3-pyridylmethyl)-4 (3H)-quinazolinone]	–	31 nM	–
O=c1c2cc(Cl)ccc2nnn1CCCn1ccnc1 [formula (A)]	–	–	thromboxane synthetase enzyme inhibition [5]: inhibits thromboxane synthetase enzyme
